What follows are molecules tested on mouse peritoneal macrophages (assay: Suppression of foaming of macrophages: cholesterol ester (CE) production in mouse peritoneal macrophages loaded with liposomes). Details: mouse peritoneal macrophages, 5 μM.
Assay type: cell-based
Procedure: Activity of the compounds of the present invention for suppressing the foaming of macrophages, which triggers arterial sclerosis, was examined. (1) In vitro experiment using mouse peritoneal macrophages.
15-Week old female ICR mice (Nippon SLC) were subjected to bleeding by cutting off their cervicalis, and Hanks buffer (Nippon Seiyaku) was injected into their peritoneal cavities. After abdominal regions of the mice were massaged, the buffer was recovered immediately, and then the resulting buffer was centrifuged at 1,000 r.p.m. for five minutes to collect peritoneal macrophages. Then, the collected macrophages were suspended in GTI medium (Wako Pure Chemical Industries), and inoculated onto a 24-well microtiter plate. After the macrophages were cultivated at 37° C. under 5% CO2 for two hours, the culture medium was changed with Dulbecco Modified Eagle Medium (MEM, Nippon Seiyaku). The macrophages were further cultivated at 37° C. under 5% CO2 for 16 hours, and then a test compound and liposomes were added to the culture.
1) Test compound: dissolved in DMSO (Wako Pure Chemical Industries),
2) Liposomes: PC/PS/DCP/CHOL=50/50/10/75 (nmol)
PC: Phosphatidylcholine (Funakoshi);
PS: Phosphatidylserine (Funakoshi);
DCP: Dicetylphosphate (Funakoshi);
CHOL: Cholesterol (Sigma)
After cultivation was further continued at 37° C. under 5% CO2 for 16 hours, lipid fraction was extracted with chloroform and methanol. The extracted lipid fraction was dissolved in isopropyl alcohol, and the produced cholesterol ester (CE) was quantified by an enzymatic luminescence method. Yield of the cholesterol ester was calculated as a relative ratio based on yield of the control as 100% where no test compound was added.

Question: How did the “suppression of foaming of macrophages / cholesterol ester synthesis (result in words)” value turn out when `O=C1c2ccccc2C(=O)N1CCCCSCc1nc2ccccc2[nH]1` [Ref. 1, reference compound] was run?
Answer: completely inactive

Question: How did the “suppression of foaming of macrophages / cholesterol ester synthesis (result in words)” value turn out when `CC(C)Oc1cccc(OC(C)C)c1NC(=O)CN1CCN(CCCSc2nc3ccccc3[nH]2)CC1` [Ref. 2, reference compound] was run?
Answer: almost no inhibitory effect

Question: `CCCCCCN(CCCCCSc1nc2ccccc2[nH]1)C(=O)Nc1ccc(F)cc1F` [Ref. 3, reference compound] was tested. Which “suppression of foaming of macrophages / cholesterol ester synthesis (result in words)” value did it give?
Answer: almost no inhibitory effect

Same assay, conditions: test compound 5 μM; 16 h with liposomes; cholesterol ester yield relative to control without test compound = 100% (smaller value = more potent suppression)

Question: Which “CE yield (%)” value does the source give for “3-(5-(1-methylbenzimidazolyl-2-thio)pentyl)-5-methyl-2,4-oxazolidinedione [Compound 14]” here?
Answer: 20%

Question: For “3-(6-(5-chlorobenzothiazolyl-2-thio)hexyl)-2,4-thiazolidinedione [Compound 16]”, which “CE yield (%)” value is on record?
Answer: 15%

Question: Which “CE yield (%)” value does the source give for `O=C1CSC(=O)N1CCCCCSc1nc2ccccc2[nH]1` [Compound 2, 3-(5-(benzimidazolyl-2-thio)pentyl)-2,4-thiazolidinedione] here?
Answer: 19%

Question: With `O=C1CCC(=O)N1CCCCCSc1nc2ccccc2[nH]1` [Compound 11, N-(5-(benzimidazolyl-2-thio)pentyl)succinimide] as the molecule, how does the “CE yield (%)” value read?
Answer: 19%

Question: `CCC(=O)n1c(SCCCCCN2C(=O)OC(C)C2=O)nc2ccccc21` (stereo not shown) [Compound 15, 3-(5-(1-propionylbenzimidazolyl-2-thio)pentyl)-5-methyl-2,4-oxazolidinedione] was tested. Which “CE yield (%)” value did it give?
Answer: 12%

Question: With `O=C1CSC(=O)N1CCOCCSc1nc2ccccc2[nH]1` [Compound 22] as the molecule, how does the “CE yield (%)” value read?
Answer: 23%

Question: For `O=C1CSC(=O)N1CCOCCOCCSc1nc2ccccc2[nH]1` [Compound 23, 3-(2-(2-(2-benzimidazolyl-2-thio)ethoxy)ethoxy)ethyl-2,4-thiazolidinedione], which “CE yield (%)” value is on record?
Answer: 22%

Question: How did the “CE yield (%)” value turn out when `O=C1c2ccccc2C(=O)N1CCCCSCc1nc2ccccc2[nH]1` [Ref. 1, reference compound] was run?
Answer: 89%

Question: Which “CE yield (%)” value does the source give for `CC(C)Oc1cccc(OC(C)C)c1NC(=O)CN1CCN(CCCSc2nc3ccccc3[nH]2)CC1` [Ref. 2, reference compound] here?
Answer: 95%

Question: Which “CE yield (%)” value does the source give for `CCCCCCN(CCCCCSc1nc2ccccc2[nH]1)C(=O)Nc1ccc(F)cc1F` [Ref. 3, reference compound] here?
Answer: 78%
